In patent US7741348B2, “Bisheterocycle tandem compounds useful as antiviral agents, the uses thereof and the compositions comprising such compounds” (Shanghai Institute of Materia Medica, Chinese Academy of …, priority 2005, dated 2010):
≈ marks a conversion by molar mass, not a printed value.

Assays:
Format in all cases: cell-based
hepatitis B virus (HBV) [1] = experiment: HBsAg secretion in HepG2.2.15 culture supernatant (ELISA); settings: HepG2.2.15 supernatant, eighth day, read-out: HBsAg secreation IC50
Text: (§1) Hepatitis B virus (HBV) transgenic human hepatoma carcinoma cell, HepG2.2.15 cell line, can secrete hepatitis B virus particles (containing antigen and DNA) into supernatant when being cultured.
(§2) Under action of antiviral drugs, the contents of HBsAg, HBeAg and viral DNA secreted from cells into the supernatant were detected and are compared with the contents of control groups without drugs, so that the antiviral activity of the compounds of the present invention can be measured as well as the cytotoxic effect of compounds of the present invention. The value concentration of the compounds of the present invention which caused 50% of cells dead and was measured with MTT method was CC50; and the value concentration of the compounds of the present invention which inhibited the secretion of HBsAg and HBeAg detected by ELISA method and inhibited 50% of viral DNA replication detected by fluorescent quantification PCR method was IC50.
(§3) HepG2.2.15 cells were inoculated on a 96-well plate, and the compounds of the present invention were added next day. The medium and the compound solutions of the same concentration were renewed periodically. The culture supernatants were collected on the eighth day to be detected. MTT was added to the cells on the 96-well plate, and MTT dissolving liquid was added after 4 hours to be reacted overnight. OD570 was measured next day on microplate reader. And the cytotoxicity of the compounds of the present invention to the HepG2.2.15 cells, the effect of the compounds of the present invention on the growth of the cells, and the concentration of the compound of the present invention (CC50) causing 50% of the cells dead were estimated according to the OD values.
(§4) HBsAg and HBeAg were detected with assaying kits (purchased from Sino-American biotechnological company). Samples were added to the coated strip plate, and the same amount of enzyme labeled conjugate was added, after reacting under 37° C. for 1 hour, the plate was washed 5 times. Colorant solutions A and B were added, and the reaction was stopped after 15 minutes, and OD450/630 was measured. The half inhibition rate IC50 of the sample for the HBV antigen was calculated according to the OD values.

[2] = test system: MDCK (canine kidney) cells; experiment: 50% toxicity concentration in the anti-influenza screen (MDCK cells); settings: 50% toxity concentration, Table 3-2 (influenza screen, MDCK cells)
Text: (§5) 4. Screening of the samples for the anti-influenza virus A and B activity: MDCK (canine kidney) cells were used as the virus host to test the inhibition effect of the compounds of the present invention on the cytopathic effect (CPE) of the cells caused by the virus.

[3] = Cytotoxicity to HepG2.2.15 cells (MTT method); settings: human, HepG2.2.15 cells (HBV-transgenic human hepatoma cells), 50% death concentration, eighth day
Text: as §1, §2, §3

influenza A virus = experiment: Anti influenza A virus activity, cytopathic effect (CPE) in MDCK cells
Text: as §5

hepatitis B virus (HBV) [4] = experiment: HBV-DNA replication in HepG2.2.15 culture supernatant (fluorescent quantification PCR); settings: for IC50: Hepatitis B virus, HepG2.2.15 supernatant, eighth day, fluorescent quantification PCR, read-out: DNA replication IC50
Text: as §1, §2, §3
A suitable amount of culture supernatant was added into a same volume of virus extract solution, and was boiled after mixed uniformly, then centrifuged at 10000 rpm for 5 min under room temperature. A suitable amount of supernatant was collected for PCR amplification. Five HBV-DNA standard samples were used to set a standard curve. According to the obtained viral DNA replication value, the inhibition rates of HBV-DNA replication of the compound of the present invention at different concentrations were calculated, and then the half inhibition rates of the compounds were calculated to obtain IC50. For the samples that can not be calculated for IC50 value, they can be represented by ICX and given the corresponding concentration values.

hepatitis B virus (HBV) [5] = experiment: HBeAg secretion in HepG2.2.15 culture supernatant (ELISA); settings: HepG2.2.15 supernatant, eighth day, read-out: HBeAg secreation IC50
Text: as §1, §2, §3, §4

Compound | IC50 (hepatitis B virus (HBV) [1]) [µM] | TC50 [2] [µg/mL] | CC50 [3] [µM] | IC50 (influenza A virus) [µg/mL] | IC50 (hepatitis B virus (HBV) [5]) [µM] | other results
COC(=O)c1nc(-c2csc([C@@H](NC(=O)c3ccccc3F)C(C)C)n2)oc1C [Wang417.46-J] | 143 | >1000 | 755 | > 86.2 | – | –
COc1ccccc1C(=O)N[C@H](c1nc(-c2nc(C(=O)O)c(C)o2)cs1)C(C)C [Wang415.46] | – | 333.33 (≈ 802 µM) | – | 29 (≈ 69.8 µM) | – | –
CCOC(=O)c1nc(-c2nccs2)[nH]c1CC(C)C [Wang279-1] | 143 | – | 786 | – | 102 | DNA replication IC60 (hepatitis B virus (HBV) [4]; ICX: concentration with 60% inhibition of HBV-DNA replication, IC50 not calculable): IC60 = 37 uM
CCC(=O)N[C@H](c1nc(-c2nc(C(=O)N[C@@H](C)c3nc(C(=O)OC)co3)c(C)o2)cs1)C(C)C [Wang489.55] | – | 577.35 (≈ 1180 µM) | – | 160 (≈ 327 µM) | – | –
CCCCc1[nH]c(-c2cccs2)nc1C(=O)OCC [Wang278] | 67.3 | – | 153 | – | 24 | IC50 (hepatitis B virus (HBV) [4]): 4.8 µM
COC(=O)c1coc([C@H](C)NC(=O)c2nc(-c3csc([C@@H](NC(=O)CC=C(C)C)C(C)C)n3)oc2C)n1 [Wang529.61-2] | – | 577.35 (≈ 1090 µM) | – | 111 (≈ 210 µM) | – | –
CCC(=O)N[C@H](c1nc(-c2nc(C(=O)OC)c(C)o2)cs1)C(C)C [Yao 351.42] | – | 577.35 (≈ 1640 µM) | – | 259 (≈ 736 µM) | – | –
CCCc1[nH]c(-c2nccs2)nc1C(=O)OCC [Wang265] | 131 | – | 548 | – | 38.8 | DNA replication IC44 (hepatitis B virus (HBV) [4]; ICX: concentration with 44% inhibition of HBV-DNA replication, IC50 not calculable): IC44 = 4.1 uM
COC(=O)c1nc(-c2csc([C@@H](NC(=O)CCC=C(C)C)C(C)C)n2)oc1C [Yao405.51] | – | 577.35 (≈ 1420 µM) | – | 37 (≈ 91.3 µM) | – | –
COC(=O)c1nc(-c2csc([C@@H](NC(=O)c3cccs3)C(C)C)n2)oc1C [Wang405.49] | 63.5 | – | 154 | – | 46 | IC50 (hepatitis B virus (HBV) [4]): 76 µM
COC(=O)c1nc(-c2csc([C@@H](NC(=O)CC3=CCCCC3)C(C)C)n2)oc1C [Wang 417.52] | – | 231.12 (≈ 554 µM) | – | 68.7 (≈ 165 µM) | – | –
Cc1oc(-c2csc([C@@H](NC(=O)CC3=CCCC3)C(C)C)n2)nc1C(=O)O [Wang389.47] | – | 480.75 (≈ 1230 µM) | – | 29 (≈ 74.5 µM) | – | –
O=C(O)c1nc(-c2nccs2)sc1Cc1ccccc1 [Wang302] | – | – | – | – | 83.2 | IC50 (hepatitis B virus (HBV) [4]): 63.1 µM
COC(=O)c1nc(-c2csc([C@@H](NC(=O)c3ccccc3OC)C(C)C)n2)oc1C [Wang429.49] | – | 333.33 (≈ 776 µM) | – | 47.7 (≈ 111 µM) | – | –
COC(=O)c1nc(-c2csc([C@@H](NC(=O)C(C)(C)C)C(C)C)n2)oc1C [Yao379.47] | – | 577.35 (≈ 1520 µM) | – | 97.8 (≈ 258 µM) | – | –
C=CCC(=O)N[C@H](c1nc(-c2nc(C(=O)N[C@@H](C)c3nc(C(=O)OC)co3)c(C)o2)cs1)C(C)C [Wang 501.56-2] | – | 577.35 (≈ 1150 µM) | – | 68.7 (≈ 137 µM) | – | –
Clc1nc(-c2nccs2)[nH]c1-c1ccccc1 [Wang261] | 92.4 | – | 123 | – | 37 | –
COC(=O)c1nc(-c2csc([C@@H](NC(=O)C3CCC3)C(C)C)n2)oc1C [Wang 377.46-1] | – | 500 (≈ 1320 µM) | – | 111 (≈ 294 µM) | – | –
Clc1nc(-c2cccs2)[nH]c1-c1ccccc1 [Wang260] | 71.4 | – | 270 | – | 130 | DNA replication IC85 (hepatitis B virus (HBV) [4]; ICX: concentration with 85% inhibition of HBV-DNA replication, IC50 not calculable): IC85 = 37 uM
c1ccc(-c2cnc(-c3cccs3)o2)cc1 [Compound C227] | – | – | > 100 | – | – | IC50 (hepatitis B virus (HBV) [4]): 1.4 µM
CCOC(=O)c1nc(-c2cc3ccccc3s2)oc1CC(C)C [Compound C329] | – | – | > 100 | – | – | DNA replication IC41.8 (hepatitis B virus (HBV) [4]; ICX: concentration with 41.8% inhibition of HBV-DNA replication, IC50 not calculable): IC41.8 = 4 uM
COC(=O)c1nc(-c2nccs2)sc1CC(C)C [Wang282-1] | 67.6 | – | – | – | 21.7 | IC50 (hepatitis B virus (HBV) [4]): 2.4 µM
